Experimental data: patent publication US20210127671A1, “HYPERSENSITIVE RESPONSE ELICITOR PEPTIDES AND USE THEREOF” (priority 2015, published 2021)
Like-named read-outs stand apart in the source and are kept apart here. Peptide text beside a SMILES is read from it.

Legend:
[1] = Stability against chemical degradation in water or pH buffers at 50° C. (HPLC); details: for precipitation during stability test: 0.2% AI, 0.25% Proxel GXL, 50 mM buffers, 50° C.; for solution stability (in words): aqueous solution
Method: Briefly, the stability and resistance to chemical degradation of peptides can be assessed as follows using peptide samples having an initial purity of at least about 80%, at least about 82%, at least about 84%, at least about 86%, at least about 88%, at least about 90%, at least about 92%, at least about 94%, at least about 96%, or at least about 98%. For water stability, the peptide is dissolved directly in de-ionized water. For chemical degradation tests, the peptide is dissolved in an aqueous solution containing 50 mM pH buffer and 0.25% Proxel GXL. Exemplary pH buffers include, without limitation: (i) Citrate pH 5.6; (ii) MES pH 6.2; (iii) MOPS pH 6.5; (iv) imidazole pH 7.0; (v) Citrate pH 7.2; (vi) EDDS, pH 7.3; (vii) EDTA pH 8.0; (viii) sodium phosphate pH 8.0; or (ix) TES pH 8.0. Peptides are first dissolved in the aqueous solution at a concentration of 0.5 mg/ml. […] An initial sample of the peptide is removed, diluted 10× with water, and analyzed by reverse-phase HPLC. Briefly, 20 μl of the sample is injected into the solvent flow of an HPLC instrument and analyzed on a C18 HPLC column (YMC ProPack C18, YMC, Japan, or C18 Stablebond, Agilent Technologies, USA) using either a triethylamine phosphate in water/acetonitrile gradient or a 0.1% TFA in water/0.1% TFA in acetonitrile gradient to separate different peptide species. Eluting peptides are monitored by UV absorbance at 218 nm and quantified based on the area under the peak. The area under the peak for the initial peptide sample is treated as the standard for relative quantification in subsequent runs. At regular intervals (e.g., 1, 3, 7, 10, 14, 17, and 21 days), each peptide sample is surveyed and analyzed by HPLC as described above.
Stability against chemical degradation was assessed in various pH buffers by creating 0.2% AI solutions of pure, chemically synthesized peptide in deionized water, 0.25% weight to volume of Proxel® GXL (biocide), and 50 millimolar (mM) of eight buffers (separately) as follows: MES pH 5.6, MOPS pH 6.5, Citrate pH 7.2, EDDS pH 7.3, EDTA pH 8, Phosphate pH 8, Imidazole pH 8, and TES pH 8.

[2] = 0.2% AI in deionized water, 48 hours at room temperature
[3] = not given; remark: listed apart in the source

SMILES | precipitation during stability test [1] | solution stability (in words) [1] | solubility [2] | solubility | also measured
CC[C@H](C)[C@H](NC(=O)CNC(=O)[C@H](CCC(=O)O)NC(=O)[C@@H](N)CC(N)=O)C(=O)N[C@@H](CO)C(=O)N[C@@H](CCC(=O)O)C(=O)N[C@@H](CCCCN)C(=O)N[C@@H](CCC(=O)O)C(=O)N[C@@H](CC(C)C)C(=O)N[C@@H](CC(=O)O)C(=O)N[C@@H](CCC(=O)O)C(=O)N[C@@H](CC(C)C)C(=O)N[C@@H](CC(C)C)C(=O)N[C@H](C(=O)N[C@@H](CCC(=O)O)C(=O)N[C@@H](CC(C)C)C(=O)N[C@H](C(=O)N[C@@H](CCC(=O)O)C(=O)N[C@@H](C)C(=O)N[C@@H](CC(C)C)C(=O)N[C@@H](CC(C)C)C(=O)N[C@@H](CCC(N)=O)C(=O)N[C@@H](CCC(N)=O)C(=O)O)[C@@H](C)CC)[C@@H](C)O [P1-2E,8E,11E,15E,18E] (H-NEGISEKELDELLTELIEALLQQ-OH; N-terminus and C-terminus assumed) | remained in solution | improved solubility and stability when compared with P1 | soluble | – | –
CC[C@H](C)[C@H](NC(=O)CNC(=O)[C@H](CCC(N)=O)NC(=O)[C@@H](N)CC(N)=O)C(=O)N[C@@H](CO)C(=O)N[C@@H](CCC(=O)O)C(=O)N[C@@H](CCCCN)C(=O)N[C@@H](CCC(N)=O)C(=O)N[C@@H](CC(C)C)C(=O)N[C@@H](CC(=O)O)C(=O)N[C@@H](CCC(N)=O)C(=O)N[C@@H](CC(C)C)C(=O)N[C@@H](CC(C)C)C(=O)N[C@H](C(=O)N[C@@H](CCC(N)=O)C(=O)N[C@@H](CC(C)C)C(=O)N[C@H](C(=O)N[C@@H](CCCCN)C(=O)N[C@@H](C)C(=O)N[C@@H](CC(C)C)C(=O)N[C@@H](CC(C)C)C(=O)N[C@@H](CCC(N)=O)C(=O)N[C@@H](CCC(N)=O)C(=O)O)[C@@H](C)CC)[C@@H](C)O [Peptide P1-18K] (H-NQGISEKQLDQLLTQLIKALLQQ-OH; N-terminus and C-terminus assumed) | – | – | – | ≥ 20 mg/mL | % remaining after 14 days incubation ([1]; 50 mM TES, pH 8.0, 50° C.): 58%
CC[C@H](C)[C@H](NC(=O)CNC(=O)[C@H](CCC(N)=O)NC(=O)[C@@H](N)CC(N)=O)C(=O)N[C@@H](CO)C(=O)N[C@@H](CCC(=O)O)C(=O)N[C@@H](CCCCN)C(=O)N[C@@H](CCC(N)=O)C(=O)N[C@@H](CC(C)C)C(=O)N[C@@H](CC(=O)O)C(=O)N[C@@H](CCC(N)=O)C(=O)N[C@@H](CC(C)C)C(=O)N[C@@H](CC(C)C)C(=O)N[C@H](C(=O)N[C@@H](CCC(N)=O)C(=O)N[C@@H](CC(C)C)C(=O)N[C@H](C(=O)N[C@@H](CCSC)C(=O)N[C@@H](C)C(=O)N[C@@H](CC(C)C)C(=O)N[C@@H](CC(C)C)C(=O)N[C@@H](CCC(N)=O)C(=O)N[C@@H](CCC(N)=O)C(=O)O)[C@@H](C)CC)[C@@H](C)O [Peptide P1] (H-NQGISEKQLDQLLTQLIMALLQQ-OH; N-terminus and C-terminus assumed) | Precipitation of P1 was observed after several days | – | largely insoluble in water | < 1 mg/mL | % of the material remaining after 7 days ([1]; 50 mM EDDS, pH 7.3): 10%; better stability than the mutants after 14 days ([1]; 50 mM MES pH 6.0, 50° C.): 10-30%; % degraded after 1 week of incubation ([1]; 50 mM TES, pH 8.0, 80° C. as printed): more than 90%; stability (in words) ([1]; dissolved in water, FIG. 1): modestly stable; solubility behaviour ([1]; lower pH: deionized water, 50 mM citrate pH 5.6, 50 mM MES pH 6.0): solubility problems; solubility (in words) ([1]; phosphate, pH 8.0): some cloudiness in solution; stability (in words) ([1]; phosphate, pH 8.0): appears to outperform the stability of the mutants
CC[C@H](C)[C@H](NC(=O)CNC(=O)[C@H](CCC(N)=O)NC(=O)[C@@H](N)CO)C(=O)N[C@@H](CO)C(=O)N[C@@H](CCC(=O)O)C(=O)N[C@@H](CCCCN)C(=O)N[C@@H](CCC(N)=O)C(=O)N[C@@H](CC(C)C)C(=O)N[C@@H](CC(=O)O)C(=O)N[C@@H](CCC(N)=O)C(=O)N[C@@H](CC(C)C)C(=O)N[C@@H](CC(C)C)C(=O)N[C@@H](CO)C(=O)N[C@@H](CCC(N)=O)C(=O)N[C@@H](CC(C)C)C(=O)N[C@H](C(=O)N[C@@H](CCC(N)=O)C(=O)N[C@@H](C)C(=O)N[C@@H](CC(C)C)C(=O)N[C@@H](CC(C)C)C(=O)N[C@@H](CCC(N)=O)C(=O)N1CCC[C@H]1C(=O)O)[C@@H](C)CC [Peptide P4-14S] (H-SQGISEKQLDQLLSQLIQALLQP-OH; N-terminus and C-terminus assumed) | remained in solution | highly stable peptide | completely soluble | – | –
CC[C@H](C)[C@H](NC(=O)CNC(=O)[C@H](CCC(N)=O)NC(=O)[C@@H](N)CO)C(=O)N[C@@H](CO)C(=O)N[C@@H](CCC(=O)O)C(=O)N[C@@H](CCCCN)C(=O)N[C@@H](CCC(N)=O)C(=O)N[C@@H](CC(C)C)C(=O)N[C@@H](CC(=O)O)C(=O)N[C@@H](CCC(N)=O)C(=O)N[C@@H](CC(C)C)C(=O)N[C@@H](CC(C)C)C(=O)N[C@@H](CS)C(=O)N[C@@H](CCC(N)=O)C(=O)N[C@@H](CC(C)C)C(=O)N[C@H](C(=O)N[C@@H](CCC(N)=O)C(=O)N[C@@H](C)C(=O)N[C@@H](CC(C)C)C(=O)N[C@@H](CC(C)C)C(=O)N[C@@H](CCC(N)=O)C(=O)N1CCC[C@H]1C(=O)O)[C@@H](C)CC [Peptide P4] (H-SQGISEKQLDQLLCQLIQALLQP-OH; N-terminus and C-terminus assumed) | remained in solution | very poor stability | completely soluble | ≥ 100 mg/mL | –
CC[C@H](C)[C@H](NC(=O)[C@H](CC(N)=O)NC(=O)[C@H](CO)NC(=O)[C@H](CCC(N)=O)NC(=O)[C@H](CO)NC(=O)[C@H](CC(=O)O)NC(=O)[C@H](CC(N)=O)NC(=O)[C@@H]1CCCN1C(=O)[C@@H](N)CCCCN)C(=O)N[C@@H](C)C(=O)N[C@@H](CCCCN)C(=O)N[C@@H](CC(C)C)C(=O)N[C@H](C(=O)N[C@@H](CO)C(=O)N[C@@H](C)C(=O)N[C@@H](CC(C)C)C(=O)N[C@H](C(=O)N[C@@H](CCSC)C(=O)N[C@@H](CO)C(=O)N[C@@H](CC(C)C)C(=O)N[C@@H](CC(C)C)C(=O)N[C@@H](CCC(N)=O)C(=O)O)[C@@H](C)CC)[C@@H](C)CC [Peptide P15b] (H-KPNDSQSNIAKLISALIMSLLQ-OH; N-terminus and C-terminus assumed) | – | – | – | – | solubility at 0.2% w/v ([3]; 50 mM MES pH 6.0, and MOPS pH 6.5): at least partially soluble; solubility at 0.2% w/v ([3]; 50 mM of each of citrate pH ~5.2, citrate pH 7.0, phosphate pH 7.0, TES pH 8.0, EDTA pH 8.0, EDDS pH 7.0): insoluble; solubility at 0.2% w/v ([3]; water): partially soluble
CC[C@H](C)[C@H](N)C(=O)N[C@H](C(=O)N1CCC[C@H]1C(=O)N[C@@H](CC(=O)O)C(=O)NCC(=O)N[C@@H](CCC(N)=O)C(=O)NCC(=O)NCC(=O)NCC(=O)N[C@@H](CCC(N)=O)C(=O)N[C@H](C(=O)NCC(=O)N[C@@H](CC(=O)O)C(=O)N[C@@H](CC(N)=O)C(=O)N1CCC[C@H]1C(=O)N[C@@H](CC(C)C)C(=O)N[C@@H](CC(C)C)C(=O)N[C@@H](CCCCN)C(=O)N[C@@H](C)C(=O)N[C@@H](CC(C)C)C(=O)N[C@@H](CC(C)C)C(=O)N[C@@H](CCCCN)C(=O)N[C@@H](CC(C)C)C(=O)N[C@H](C(=O)N[C@@H](C)C(=O)O)[C@@H](C)CC)[C@@H](C)CC)[C@@H](C)O [Peptide P19-20L] (H-ITPDGQGGGQIGDNPLLKALLKLIA-OH; N-terminus and C-terminus assumed) | – | – | – | – | stability compared with P19 (in words) ([1]; 50 mM citrate pH 7.2 or 50 mM TES, pH 8.0): modest increase in stability
CC[C@H](C)[C@H](N)C(=O)N[C@H](C(=O)N1CCC[C@H]1C(=O)N[C@@H](CC(=O)O)C(=O)NCC(=O)N[C@@H](CCC(N)=O)C(=O)NCC(=O)NCC(=O)NCC(=O)N[C@@H](CCC(N)=O)C(=O)N[C@H](C(=O)NCC(=O)N[C@@H](CC(=O)O)C(=O)N[C@@H](CC(N)=O)C(=O)N1CCC[C@H]1C(=O)N[C@@H](CC(C)C)C(=O)N[C@@H](CC(C)C)C(=O)N[C@@H](CCCCN)C(=O)N[C@@H](C)C(=O)N[C@@H](CCSC)C(=O)N[C@@H](CC(C)C)C(=O)N[C@@H](CCCCN)C(=O)N[C@@H](CC(C)C)C(=O)N[C@H](C(=O)N[C@@H](C)C(=O)O)[C@@H](C)CC)[C@@H](C)CC)[C@@H](C)O [Peptide P19] (H-ITPDGQGGGQIGDNPLLKAMLKLIA-OH; N-terminus and C-terminus assumed) | – | – | – | – | remaining at 336 h ([1]; buffer or solvent): 52%
